Measured values from patent US6503881B2 (priority 1996, dated 2003).
Read-outs that look alike come from different tables or passages of the source.

What was measured:
[1] = test system: inherently resistant microorganisms
[2] = test system: microorganisms with acquired resistance
[3] = E. coli ECO3, pair Mupirocin / MBI 11D18CN
[4] = S. aureus 19 MRSA, pair Piperacillin / MBI 11D18CN

For W R I W K P K W R L P K W [MBI 11D18CN], the MIC (bacteria; A. calcoaceticus AC003) was 32 mg/L, the MIC (bacteria; E. cloacae ECL009) was 64 mg/L and the MIC (bacteria; E. coli ATCC 25922, agarose dilution assay) was 16 mg/L. It also gave an MIC (bacteria; E. coli ECO002) of 4 mg/L, an MIC (bacteria; E. coli ESS, agarose dilution assay) of 2 mg/L and an MIC (bacteria; E. coli NCTC 10418, agarose dilution assay) of 2 mg/L. For the same substance, the MIC (bacteria; E. faecalis EFS002) was 32 mg/L, the MIC (bacteria; E. faecium ATCC 29212, agarose dilution assay) was 8 mg/L and the MIC (bacteria; E. faecium EFM003) was 2 mg/L. For the same substance, the MIC (bacteria; H. influenzae HIN002) was >128 mg/L, the MIC (bacteria; K. pneumoniae KP002) was 64 mg/L and the MIC (bacteria; P. aeruginosa ATCC 27853, agarose dilution assay) was 128 mg/L. The MIC (bacteria; P. aeruginosa NCTC 10662, agarose dilution assay) was 128 mg/L, the MIC (bacteria; P. aeruginosa PA006) was >128 mg/L and the MIC (bacteria; P. mirabilis PM003) was >128 mg/L. For the same substance, the MIC (bacteria; P. vulgaris ATCC 13315, agarose dilution assay) was 32 mg/L, the MIC (bacteria; P. vulgaris SBPV1) was 32 mg/L and the MIC (bacteria; S. aureus ATCC 29213, agarose dilution assay) was 0.5 mg/L. It also gave an MIC (bacteria; S. aureus MRSA9, agarose dilution assay) of 2 mg/L, an MIC (bacteria; S. aureus MRSA13, agarose dilution assay) of 8 mg/L and an MIC (bacteria; S. aureus MRSA17, agarose dilution assay) of 2 mg/L. The MIC (bacteria; S. aureus SA010) was 4 mg/L, the MIC (bacteria; S. aureus SA206, agarose dilution assay) was 4 mg/L and the MIC (bacteria; S. epidermidis SE010) was 2 mg/L. For the same substance, the MIC (bacteria; S. maltophilia SMA003) was 16 mg/L, the MIC (bacteria; S. marcescens SBSM2) was >128 mg/L and the MIC (bacteria; S. marcescens SM76, agarose dilution assay) was >128 mg/L. The MIC (bacteria; S. marcescens SM82, agarose dilution assay) was >128 mg/L, the MIC (bacteria; S. pneumoniae 406LE8, agarose dilution assay) was 64 mg/L and the MIC (bacteria; S. pneumoniae 60120, agarose dilution assay) was 128 mg/L. For the same substance, the MIC (bacteria; S. pneumoniae ATCC 49619, agarose dilution assay) was 64 mg/L, the MIC (bacteria; S. pneumoniae SBSPN3) was 64 mg/L and the MIC (bacteria; S. pyogenes SPY003) was 32 mg/L. For the same substance, the FIC [1] was 0.56, the “MIC Alone” value [1] was 32 mg/L and the MIC in combination [1] was 16 mg/L. The FIC [1, 3] was 0.26, the “MIC Alone” value [1, 3] was 4 mg/L and the MIC in combination [1, 3] was 1 mg/L. The FIC [1, 4] was 0.52, the “MIC Alone” value [1, 4] was 4 mg/L and the MIC in combination [1, 4] was 2 mg/L. For the same substance, the “Peptide MIC + Tobramycin” value ([2]; A. baumannii ABI001) was 4 mg/L, the “Tobramycin MIC + Peptide” value ([2]; A. baumannii ABI001) was 4 mg/L and the “Peptide MIC Alone” value ([2]; A. baumannii ABI001 (7. Tobramycin)) was 64 mg/L. For the same substance, the “Peptide MIC + Tobramycin” value ([2]; A. baumannii ABI002) was 0.5 mg/L, the “Tobramycin MIC + Peptide” value ([2]; A. baumannii ABI002) was 4 mg/L and the “Peptide MIC Alone” value ([2]; A. baumannii ABI002 (7. Tobramycin)) was 16 mg/L. For the same substance, the “Peptide MIC + Piperacillin” value ([2]; A. calcoaceticus 3) was 8 mg/L, the “Piperacillin MIC + Peptide” value ([2]; A. calcoaceticus 3) was 8 mg/L and the “Peptide MIC Alone” value ([2]; A. calcoaceticus 3 (6. Piperacillin)) was 32 mg/L. The “Peptide MIC + Piperacillin” value ([2]; E. cloacae 9) was 16 mg/L, the “Piperacillin MIC + Peptide” value ([2]; E. cloacae 9) was 16 mg/L and the “Peptide MIC Alone” value ([2]; E. cloacae 9 (6. Piperacillin)) was 64 mg/L. For the same substance, the “Peptide MIC + Piperacillin” value ([2]; E. cloacae 10) was 16 mg/L, the “Piperacillin MIC + Peptide” value ([2]; E. cloacae 10) was 16 mg/L and the “Peptide MIC Alone” value ([2]; E. cloacae 10 (6. Piperacillin)) was 32 mg/L. For the same substance, the “Peptide MIC + Vancomycin” value ([2]; E. faecalis EFS003) was 32 mg/L, the “Vancomycin MIC + Peptide” value ([2]; E. faecalis EFS003) was 2 mg/L and the “Peptide MIC Alone” value ([2]; E. faecalis EFS003 (8. Vancomycin)) was 64 mg/L. For the same substance, the “Peptide MIC + Vancomycin” value ([2]; E. faecalis EFS007) was 8 mg/L, the “Vancomycin MIC + Peptide” value ([2]; E. faecalis EFS007) was 1 mg/L and the “Peptide MIC Alone” value ([2]; E. faecalis EFS007 (8. Vancomycin)) was 16 mg/L. The “Peptide MIC + Vancomycin” value ([2]; E. faecalis EFS009) was 4 mg/L, the “Vancomycin MIC + Peptide” value ([2]; E. faecalis EFS009) was 2 mg/L and the “Peptide MIC Alone” value ([2]; E. faecalis EFS009 (8. Vancomycin)) was 8 mg/L. For the same substance, the “Peptide MIC + Vancomycin” value ([2]; E. faecium EFM004) was 4 mg/L, the “Vancomycin MIC + Peptide” value ([2]; E. faecium EFM004) was 0.5 mg/L and the “Peptide MIC Alone” value ([2]; E. faecium EFM004 (8. Vancomycin)) was 8 mg/L. For the same substance, the “Peptide MIC + Vancomycin” value ([2]; E. faecium EFM007) was 4 mg/L, the “Vancomycin MIC + Peptide” value ([2]; E. faecium EFM007) was 0.5 mg/L and the “Peptide MIC Alone” value ([2]; E. faecium EFM007 (8. Vancomycin)) was 8 mg/L. The “Peptide MIC + Vancomycin” value ([2]; E. faecium EFM009) was 4 mg/L, the “Vancomycin MIC + Peptide” value ([2]; E. faecium EFM009) was 1 mg/L and the “Peptide MIC Alone” value ([2]; E. faecium EFM009 (8. Vancomycin)) was 8 mg/L. The “Peptide MIC + Vancomycin” value ([2]; E. faecium EFM010) was 4 mg/L, the “Vancomycin MIC + Peptide” value ([2]; E. faecium EFM010) was 1 mg/L and the “Peptide MIC Alone” value ([2]; E. faecium EFM010 (8. Vancomycin)) was 8 mg/L. The “Peptide MIC + Piperacillin” value ([2]; P. aeruginosa 23) was 4 mg/L, the “Piperacillin MIC + Peptide” value ([2]; P. aeruginosa 23) was 64 mg/L and the “Peptide MIC Alone” value ([2]; P. aeruginosa 23 (6. Piperacillin)) was 64 mg/L. For the same substance, the “Peptide MIC + Tobramycin” value ([2]; P. aeruginosa PA032) was 32 mg/L, the “Tobramycin MIC + Peptide” value ([2]; P. aeruginosa PA032) was 4 mg/L and the “Peptide MIC Alone” value ([2]; P. aeruginosa PA032 (7. Tobramycin)) was 64 mg/L. For the same substance, the “Ciprofloxacin MIC + Peptide” value ([2]; P. aeruginosa PA77) was 0.5 mg/L, the “Peptide MIC + Ciprofloxacin” value ([2]; P. aeruginosa PA77) was 32 mg/L and the “Peptide MIC Alone” value ([2]; P. aeruginosa PA77 (3. Ciprofloxacin)) was 128 mg/L. For the same substance, the Peptide MIC ([2]; S. aureus MRSA 9, pair Mupirocin / MBI 11D18CN) was 2 mg/L, the “Peptide MIC + Tobramycin” value ([2]; S. epidermidis SE080) was 1 mg/L and the “Tobramycin MIC + Peptide” value ([2]; S. epidermidis SE080) was 4 mg/L. The “Peptide MIC Alone” value ([2]; S. epidermidis SE080 (7. Tobramycin)) was 2 mg/L, the “Peptide MIC + Piperacillin” value ([2]; S. maltophilia 2) was 8 mg/L and the “Piperacillin MIC + Peptide” value ([2]; S. maltophilia 2) was 16 mg/L. For the same substance, the “Peptide MIC Alone” value ([2]; S. maltophilia 2 (6. Piperacillin)) was 32 mg/L, the “Peptide MIC + Piperacillin” value ([2]; S. maltophilia 14) was 8 mg/L and the “Piperacillin MIC + Peptide” value ([2]; S. maltophilia 14) was 16 mg/L. The “Peptide MIC Alone” value ([2]; S. maltophilia 14 (6. Piperacillin)) was 16 mg/L, the “Peptide MIC + Tobramycin” value ([2]; S. maltophilia SMA027) was 16 mg/L and the “Tobramycin MIC + Peptide” value ([2]; S. maltophilia SMA027) was 4 mg/L. The “Peptide MIC Alone” value ([2]; S. maltophilia SMA027 (7. Tobramycin)) was >128 mg/L, the “Peptide MIC + Tobramycin” value ([2]; S. maltophilia SMA029) was 8 mg/L and the “Tobramycin MIC + Peptide” value ([2]; S. maltophilia SMA029) was 2 mg/L. The “Peptide MIC Alone” value ([2]; S. maltophilia SMA029 (7. Tobramycin)) was 32 mg/L, the “Peptide MIC + Piperacillin” value ([2]; S. marcescens 1) was 4 mg/L and the “Piperacillin MIC + Peptide” value ([2]; S. marcescens 1) was 8 mg/L. The “Peptide MIC Alone” value ([2]; S. marcescens 1 (6. Piperacillin)) was >128 mg/L, the FIC ([2]; peptide + Ciprofloxacin, P. aeruginosa PA77) was 0.50 and the FIC ([2]; peptide + Piperacillin, A. calcoaceticus 3) was 0.38. It also gave an FIC ([2]; peptide + Piperacillin, E. cloacae 9) of 0.31, an FIC ([2]; peptide + Piperacillin, E. cloacae 10) of 0.56 and an FIC ([2]; peptide + Piperacillin, P. aeruginosa 23) of 0.56. For the same substance, the FIC ([2]; peptide + Piperacillin, S. maltophilia 2) was 0.50, the FIC ([2]; peptide + Piperacillin, S. maltophilia 14) was 0.63 and the FIC ([2]; peptide + Piperacillin, S. marcescens 1) was 0.14. The FIC ([2]; peptide + Tobramycin, A. baumannii ABI001) was 0.31, the FIC ([2]; peptide + Tobramycin, A. baumannii ABI002) was 9.53 and the FIC ([2]; peptide + Tobramycin, P. aeruginosa PA032) was 11.00. For the same substance, the FIC ([2]; peptide + Tobramycin, S. epidermidis SE080) was 0.75, the FIC ([2]; peptide + Tobramycin, S. maltophilia SMA027) was 9.19 and the FIC ([2]; peptide + Tobramycin, S. maltophilia SMA029) was 0.27. For the same substance, the FIC ([2]; peptide + Vancomycin, E. faecalis EFS003) was 0.75, the FIC ([2]; peptide + Vancomycin, E. faecalis EFS007) was 0.63 and the FIC ([2]; peptide + Vancomycin, E. faecalis EFS009) was 0.75. The FIC ([2]; peptide + Vancomycin, E. faecium EFM004) was 0.50, the FIC ([2]; peptide + Vancomycin, E. faecium EFM007) was 0.50 and the FIC ([2]; peptide + Vancomycin, E. faecium EFM009) was 0.52. For the same substance, the FIC ([2]; peptide + Vancomycin, E. faecium EFM010) was 0.59.
